Laboratory results published in patent US7452688B2, “Transformed cell with enhanced sensitivity to antifungal compound and use thereof” (Sumitomo Chemical Company, Limited, priority 2002, dated 2008).

What was measured:
Type in all cases: cell-based, Saccharomyces cerevisiae
[1] = tested on: AH22; test: Antifungal compound sensitivity test, control yeast AH22 (Example 6, Table 2); settings: absorbance at 600 nm relative to 0 ppm = 100
Source text: (§1) Degrees of growths of both of the transformed budding yeasts cultured under the presence of Compounds (1) to (7) and budding yeast as a control therefor are shown in Table 2. Degrees of growths of both of the transformed budding yeasts and budding yeast as a control are expressed by a relative value in percentage, letting the absorbance at 600 nm at the concentration of the Compound of 0 ppm to be 100. It was confirmed that an inhibiting degree of growth of the transformed budding yeast TM182-BcOS1-I 365S by each test substance was grater than an inhibiting degree of growth of the transformed budding yeast AH22-BcOS1-I 365S by each test substance, and the transformed budding yeast TM182-BcOS1-I365S was a transformed cell with the enhanced sensitivity to an antifungal compound as compared with the transformed budding yeast AH22-BcOS1-I365S.

[2] = tested on: transformed budding yeast TM182-BcOS1-I365S; test: Antifungal compound sensitivity test of transformed budding yeast TM182-BcOS1-I365S (Example 6); settings: 30° C. 67 hours; for Degree of growth of budding yeast (%) TM182-BcOS1-I365S Gal-Ura-Leu medium: control medium
Experimental: The transformed budding yeast TM182-BcOS1-I365S prepared in Example 5 was cultured at 30° C. for 18 hours in a Glu-Ura-Leu medium. The absorbance at 600 nm of a cell suspension of the grown transformed budding yeast was measured, and a cell suspension diluted with sterilized distilled water to the absorbance of 0.1 was prepared. Further, a cell suspension in which the aforementioned cell suspension of the transformed budding yeast TM182-BcOS1-I365S was diluted 200-fold with a Glu-Ura-Leu medium and, as a control, a cell suspension in which the cell suspension was diluted 200-fold with a Gal-Ura-Leu medium were prepared. A solution in which each of Compound (1) to (3) was dissolved in dimethylsulfoxide (DMSO) to the concentration of 60 ppm, a solution in which each of Compounds (4) and (5) was dissolved in dimethylsulfoxide (DMSO) to the concentration of 2000 ppm, and a solution in which each of Compounds (6) and (7) was dissolved in dimethylsulfoxide (DMSO) to the concentration of 20 ppm were prepared, and two microplates were prepared in which each 2.0 μL per well of the Compound solution and DMSO as a control were dispensed into two wells. In one microplate among them, each 200 μL of cell suspensions of the transformed budding yeast TM182-BcOS1-I365S which had been prepared by dilution with a Glu-Ura-Leu medium as described above was dispensed, and cultured by allowing to stand at 30° C. for 67 hours. In another microplate, as a control, each 200 μL of cell suspensions of the transformed budding yeast TM182-BcOS1-I 365S which had been prepared by dilution with a Gal-Ura-Leu medium was dispensed, and cultured by allowing to stand at 30° C. for 67 hours. After culturing, the absorbance at 600 nm of each well was measured with a microplate reader.
as §1

[3] = tested on: transformed budding yeast TM182-BcOS1-I365S; test: as above; settings: final concentration 6 ppm, 30° C. 67 hours; for Degree of growth of budding yeast (%) TM182-BcOS1-I365S Gal-Ura-Leu medium: control medium

With `N#Cc1c[nH]cc1-c1cccc2c1OC(F)(F)O2` [Compound (6), Fludioxonil] the “Degree of growth of budding yeast (%) AH22 Glu medium” value (shortened to “Degree … (%) AH22 Glu medium”) ([1]; final concentration 0.2 ppm) was 92%, the “Degree of growth of budding yeast (%) TM182-BcOS1-I365S Gal-Ura-Leu medium” value ([2]; final concentration 0.2 ppm) was 93% and the “Degree of growth of budding yeast (%) TM182-BcOS1-I365S Glu-Ura-Leu medium” value ([2]; final concentration 0.2 ppm) was 7%.

In the case of `N#Cc1c[nH]cc1-c1cccc(Cl)c1Cl` [Compound (7), Fenpiclonil], the “Degree … (%) AH22 Glu medium” value ([1]; final concentration 0.2 ppm) is reported as 91%, the “Degree of growth of budding yeast (%) TM182-BcOS1-I365S Gal-Ura-Leu medium” value ([2]; final concentration 0.2 ppm) is reported as 90% and the “Degree of growth of budding yeast (%) TM182-BcOS1-I365S Glu-Ura-Leu medium” value ([2]; final concentration 0.2 ppm) is reported as 22%.

For `O=[N+]([O-])c1c(Cl)c(Cl)c(Cl)c(Cl)c1Cl` [Compound (4), Quintozene], the “Degree … (%) AH22 Glu medium” value ([1]; final concentration 20 ppm) was 96%, the “Degree of growth of budding yeast (%) TM182-BcOS1-I365S Gal-Ura-Leu medium” value ([2]; final concentration 20 ppm) was 101% and the “Degree of growth of budding yeast (%) TM182-BcOS1-I365S Glu-Ura-Leu medium” value ([2]; final concentration 20 ppm) was 41%.

`COP(=S)(OC)Oc1c(Cl)cc(C)cc1Cl` [Compound (5), Tolclofos-methyl] was tested, and the “Degree … (%) AH22 Glu medium” value ([1]; final concentration 20 ppm) was 80%, the “Degree of growth of budding yeast (%) TM182-BcOS1-I365S Gal-Ura-Leu medium” value ([2]; final concentration 20 ppm) was 76% and the “Degree of growth of budding yeast (%) TM182-BcOS1-I365S Glu-Ura-Leu medium” value ([2]; final concentration 20 ppm) was 13%.

`CC12CC1(C)C(=O)N(c1cc(Cl)cc(Cl)c1)C2=O` (stereo not drawn) [Compound (1), Procymidone] was tested, and the “Degree … (%) AH22 Glu medium” value ([1]; final concentration 6 ppm) was 88%, the “Degree of growth of budding yeast (%) TM182-BcOS1-I365S Gal-Ura-Leu medium” value [3] was 99% and the “Degree of growth of budding yeast (%) TM182-BcOS1-I365S Glu-Ura-Leu medium” value [3] was 9%.

With `CC(C)NC(=O)N1CC(=O)N(c2cc(Cl)cc(Cl)c2)C1=O` [Compound (2), Iprodione] the “Degree … (%) AH22 Glu medium” value ([1]; final concentration 6 ppm) was 91%, the “Degree of growth of budding yeast (%) TM182-BcOS1-I365S Gal-Ura-Leu medium” value [3] was 88% and the “Degree of growth of budding yeast (%) TM182-BcOS1-I365S Glu-Ura-Leu medium” value [3] was 11%.

With `C=CC1(C)OC(=O)N(c2cc(Cl)cc(Cl)c2)C1=O` (stereo not drawn) [Compound (3), Vinclozolin] the “Degree … (%) AH22 Glu medium” value ([1]; final concentration 6 ppm) was 87%, the “Degree of growth of budding yeast (%) TM182-BcOS1-I365S Gal-Ura-Leu medium” value [3] was 92% and the “Degree of growth of budding yeast (%) TM182-BcOS1-I365S Glu-Ura-Leu medium” value [3] was 9%.
